Data taken from US9073821B2, “Hydroxamic acid derivative” (priority 2010, dated 2015).

Each compound was assayed against Pseudomonas aeruginosa LpxC enzyme (Pseudomonas aeruginosa (strain ATCC 15692 / DSM 22644 / CIP 104116 / JCM 14847 / LMG 12228 / 1C / PRS 101 / PAO1), UniProt P47205) (assay: biochemical). Settings: inhibitory activity on Pseudomonas aeruginosa LpxC enzyme, class symbols A/B/C; read-out: Enzyme inhibitory activity.
Assay type: biochemical

**Q.** `CNC(=O)C(C(=O)NO)N(C)C(=O)c1ccc(-c2ccc(CCOC)cc2)cc1` (centres unmarked) [Compound 246, N-hydroxy-2-[{[4′-(2-methoxyethyl)biphenyl-4-yl]carbonyl}(methyl)amino]-N′-methylpropanediamide] was tested. Which IC50 did it give?
**A.** < 10 nM

**Q.** How did the IC50 turn out when `CNC(=O)C(C(=O)NO)N(C)C(=O)c1ccc(-c2ccc(N3CCOC3=O)cc2)cc1` (centres unmarked) [Compound 247, N-hydroxy-N′-methyl-2-(methyl {[4′-(2-oxo-1,3-oxazolidin-3-yl)biphenyl-4-yl]carbonyl}amino)propanediamide] was run?
**A.** 10 to 100 nM

**Q.** How did the IC50 turn out when `CNC(=O)C(C(=O)NO)N(C)C(=O)c1ccc(-c2ccc(C(=O)NC(C)(C)C)cc2)cc1` (centres unmarked) [Compound 248, N′-tert-butyl-N-[1-(hydroxyamino)-3-(methylamino)-1,3-dioxopropan-2-yl]-N-methylbiphenyl-4,4′-dicarboxamide] was run?
**A.** 10 to 100 nM

**Q.** Which IC50 does the source give for `CNC(=O)C(C(=O)NO)N(C)C(=O)c1ccc(N2CC(c3ccccc3)C2)cc1` (centres unmarked) [Compound 249, N-hydroxy-N′-methyl-2-{methyl[4-(3-phenylazetidin-1-yl)benzoyl]amino}propanediamide] here?
**A.** 10 to 100 nM

**Q.** How did the IC50 turn out when `CNC(=O)C(C(=O)NO)N(C)C(=O)c1ccc(N2Cc3ccccc3C2)cc1` (centres unmarked) [Compound 250, 2-{[4-(1,3-dihydro-2H-isoindol-2-yl)benzoyl](methyl)amino}-N-hydroxy-N′-methylpropanediamide] was run?
**A.** 10 to 100 nM

**Q.** With `CCC(F)(F)c1ccc(-c2ccc(C(=O)N(C)C(C(=O)NC)C(=O)NO)cc2)cc1` (centres unmarked) [Compound 251, 2-[{[4′-(1,1-difluoropropyl)biphenyl-4-yl]carbonyl}(methyl)amino]-N-hydroxy-N′-methylpropanediamide] as the compound, how does the IC50 read?
**A.** < 10 nM

**Q.** Which IC50 does the source give for `CNC(=O)C(C(=O)NO)N(C)C(=O)c1ccc(-c2ccc(C(=O)N(C)C)cc2)cc1` (centres unmarked) [Compound 252, N-[1-(hydroxyamino)-3-(methylamino)-1,3-dioxopropan-2-yl]-N,N′,N′-trimethylbiphenyl-4,4′-dicarboxamide] here?
**A.** 10 to 100 nM

**Q.** How did the IC50 turn out when `CNC(=O)C(C(=O)NO)N(C)C(=O)c1ccc(-c2ccc(C(C)(F)F)cc2)cc1` (centres unmarked) [Compound 253, 2-[{[4′-(1,1-difluoroethyl)biphenyl-4-yl]carbonyl}(methyl)amino]-N-hydroxy-N′-methylpropanediamide] was run?
**A.** < 10 nM

**Q.** With `CNC(=O)C(C(=O)NO)N(C)C(=O)c1ccc(-c2ccc(C3(C)OCCO3)cc2)cc1` (centres unmarked) [Compound 254, N-hydroxy-N′-methyl-2-(methyl {[4′-(2-methyl-1,3-dioxolan-2-yl)biphenyl-4-yl]carbonyl}amino)propanediamide] as the compound, how does the IC50 read?
**A.** 10 to 100 nM

**Q.** `CNC(=O)C(C(=O)NO)N(C)C(=O)c1ccc(-c2ccc(OCCF)cc2)cc1` (centres unmarked) [Compound 255, 2-[{[4′-(2-fluoroethoxy)biphenyl-4-yl]carbonyl}(methyl)amino]-N-hydroxy-N′-methylpropanediamide] was tested. Which IC50 did it give?
**A.** < 10 nM

**Q.** Which IC50 does the source give for `CNC(=O)C(C(=O)NO)N(C)C(=O)c1ccc(-c2ccc(N3CCCC3)cc2)cc1` (centres unmarked) [Compound 256, N-hydroxy-N′-methyl-2-(methyl {[4′-(pyrrolidin-1-yl)biphenyl-4-yl]carbonyl}amino)propanediamide] here?
**A.** < 10 nM

**Q.** How did the IC50 turn out when `CCCNC(=O)c1ccc(-c2ccc(C(=O)N(C)C(C(=O)NC)C(=O)NO)cc2)cc1` (centres unmarked) [Compound 257, N-[1-(hydroxyamino)-3-(methylamino)-1,3-dioxopropan-2-yl]-N-methyl-N′-propylbiphenyl-4,4′-dicarboxamide] was run?
**A.** 10 to 100 nM

**Q.** `CNC(=O)C(C(=O)NO)N(C)C(=O)c1ccc(-c2ccc3c(c2)OC(F)(F)O3)cc1` (centres unmarked) [Compound 258, 2-{[4-(2,2-difluoro-1,3-benzodioxol-5-yl)benzoyl](methyl)amino}-N-hydroxy-N′-methylpropanediamide] was tested. Which IC50 did it give?
**A.** < 10 nM

**Q.** `CNC(=O)C(C(=O)NO)N(C)C(=O)c1ccc(-c2ccc(CN(C)OC)cc2)cc1` (centres unmarked) [Compound 259, N-hydroxy-2-{[(4′-{[methoxy(methyl)amino]methyl}biphenyl-4-yl)carbonyl](methyl)amino}-N′-methylpropanediamide] was tested. Which IC50 did it give?
**A.** 10 to 100 nM

**Q.** `CNC(=O)C(C(=O)NO)N(C)C(=O)c1ccc(-c2ccc(/C=N/OC)cc2)cc1` (centres unmarked) [Compound 260, N-hydroxy-2-[({4′-[(E)-(methoxyimino)methyl]biphenyl-4-yl}carbonyl)(methyl)amino]-N′-methylpropanediamide] was tested. Which IC50 did it give?
**A.** < 10 nM

**Q.** How did the IC50 turn out when `CNC(=O)C(C(=O)NO)N(C)C(=O)c1ccc(-c2ccc(C(C)O)cc2)cc1` (centres unmarked) [Compound 261, N-hydroxy-2-[{[4′-(1-hydroxyethyl)biphenyl-4-yl]carbonyl}(methyl)amino]-N′-methylpropanediamide] was run?
**A.** 10 to 100 nM

**Q.** `CNC(=O)C(C(=O)NO)N(C)C(=O)c1ccc(-c2ccc(C(C)(C)O)cc2)cc1` (centres unmarked) [Compound 262, N-hydroxy-2-[{[4′-(2-hydroxypropan-2-yl)biphenyl-4-yl]carbonyl}(methyl)amino]-N′-methylpropanediamide] was tested. Which IC50 did it give?
**A.** 10 to 100 nM

**Q.** `CNC(=O)C(C(=O)NO)N(C)C(=O)c1ccc(-c2ccc(OCCCN3CC=CCC3)cc2)cc1` (centres unmarked) [Compound 263, 2-[({4′-[3-(3,6-dihydropyridin-1(2H)-yl)propoxy]biphenyl-4-yl}carbonyl)(methyl)amino]-N-hydroxy-N′-methylpropanediamide] was tested. Which IC50 did it give?
**A.** 10 to 100 nM

**Q.** How did the IC50 turn out when `CNC(=O)C(C(=O)NO)N(C)C(=O)c1ccc(-c2ccc(OCCCN3CCC(F)(F)CC3)cc2)cc1` (centres unmarked) [Compound 264, 2-[({4′-[3-(4,4-difluoropiperidin-1-yl)propoxy]biphenyl-4-yl}carbonyl)(methyl)amino]-N-hydroxy-N′-methylpropanediamide] was run?
**A.** < 10 nM

**Q.** How did the IC50 turn out when `CNC(=O)C(C(=O)NO)N(C)C(=O)c1ccc(-c2ccc(CC(=O)N(C)C)cc2)cc1` (centres unmarked) [Compound 265, 2-[({4′-[2-(dimethylamino)-2-oxoethyl]biphenyl-4-yl}carbonyl)(methyl)amino]-N-hydroxy-N′-methylpropanediamide] was run?
**A.** 10 to 100 nM

**Q.** For `CNC(=O)C(C(=O)NO)N(C)C(=O)c1ccc(-c2ccc(CCC(=O)N(C)C)cc2)cc1` (centres unmarked) [Compound 266, 2-[({4′-[3-(dimethylamino)-3-oxopropyl]biphenyl-4-yl}carbonyl)(methyl)amino]-N-hydroxy-N′-methylpropanediamide], which IC50 is on record?
**A.** 10 to 100 nM

**Q.** How did the IC50 turn out when `CNC(=O)C(C(=O)NO)N(C)C(=O)c1ccc(-c2ccc(N3CCN(C)CC3)cc2)cc1` (centres unmarked) [Compound 267, N-hydroxy-N′-methyl-2-(methyl {[4′-(4-methylpiperazin-1-yl)biphenyl-4-yl]carbonyl}amino)propanediamide] was run?
**A.** 10 to 100 nM

**Q.** How did the IC50 turn out when `CNC(=O)C(C(=O)NO)N(C)C(=O)c1ccc(-c2ccc(NC3CCC3)cc2)cc1` (centres unmarked) [Compound 268, 2-[{[4′-(cyclobutylamino)biphenyl-4-yl]carbonyl}(methyl)amino]-N-hydroxy-N′-methylpropanediamide] was run?
**A.** < 10 nM

**Q.** For `CNC(=O)C(C(=O)NO)N(C)C(=O)c1ccc(-c2ccc3c(c2)OC(C)(C)O3)cc1` (centres unmarked) [Compound 269, 2-{[4-(2,2-dimethyl-1,3-benzodioxol-5-yl)benzoyl](methyl)amino}-N-hydroxy-N′-methylpropanediamide], which IC50 is on record?
**A.** < 10 nM

**Q.** For `CNC(=O)C(C(=O)NO)N(C)C(=O)c1ccc(-c2ccc(/N=C/NO)cc2)cc1` (centres unmarked) [Compound 272, N-hydroxy-2-{[(4′-{[(E)-(hydroxyamino)methylidene]amino}biphenyl-4-yl)carbonyl](methyl)amino}-N′-methylpropanediamide], which IC50 is on record?
**A.** < 10 nM

**Q.** How did the IC50 turn out when `CNC(=O)C(C(=O)NO)N(C)C(=O)C1CCC(c2ccc(Cl)cc2)CC1` (centres unmarked) [Compound 273, 2-[{[4-(4-chlorophenyl)cyclohexyl]carbonyl}(methyl)amino]-N-hydroxy-N′-methylpropanediamide] was run?
**A.** > 100 nM

**Q.** `CNC(=O)C(C(=O)NO)N(C)C(=O)c1ccc(-c2ccc(OCCCN(C)C)cc2)cc1` (centres unmarked) [Compound 274, 2-[({4′-[3-(dimethylamino)propoxy]biphenyl-4-yl}carbonyl)(methyl)amino]-N-hydroxy-N′-methylpropanediamide] was tested. Which IC50 did it give?
**A.** 10 to 100 nM

**Q.** For `CNC(=O)C(C(=O)NO)N(C)C(=O)c1ccc(-c2ccc(/C=N/N(C)C)cc2)cc1` (centres unmarked) [Compound 275, 2-[({4′-[(E)-(dimethylhydrazinylidene)methyl]biphenyl-4-yl}carbonyl)(methyl)amino]-N-hydroxy-N′-methylpropanediamide], which IC50 is on record?
**A.** < 10 nM

**Q.** How did the IC50 turn out when `CNC(=O)C(C(=O)NO)N(C)C(=O)c1ccc(-c2ccc(OCCCN3CC(OC)C3)cc2)cc1` (centres unmarked) [Compound 276, N-hydroxy-2-[({4′-[3-(3-methoxyazetidin-1-yl)propoxy]biphenyl-4-yl}carbonyl)(methyl)amino]-N′-methylpropanediamide] was run?
**A.** < 10 nM

**Q.** For `CNC(=O)C(C(=O)NO)N(C)C(=O)c1ccc(-c2ccc(OCCCN3CCCOCC3)cc2)cc1` (centres unmarked) [Compound 277, N-hydroxy-N′-methyl-2-[methyl({4′-[3-(1,4-oxazepan-4-yl)propoxy]biphenyl-4-yl}carbonyl)amino]propanediamide], which IC50 is on record?
**A.** < 10 nM

**Q.** Which IC50 does the source give for `CNC(=O)C(C(=O)NO)N(C)C(=O)c1ccc(-c2cccc(NC)c2)cc1` (centres unmarked) [Compound 278, N-hydroxy-N′-methyl-2-(methyl {[3′-(methylamino)biphenyl-4-yl]carbonyl}amino)propanediamide] here?
**A.** 10 to 100 nM

**Q.** How did the IC50 turn out when `CNC(=O)C(C(=O)NO)N(C)C(=O)c1ccc(-c2cccc(OC)c2)cc1` (centres unmarked) [Compound 279, N-hydroxy-2-{[(3′-methoxybiphenyl-4-yl)carbonyl](methyl)amino}-N′-methylpropanediamide] was run?
**A.** 10 to 100 nM

**Q.** With `CNC(=O)C(C(=O)NO)N(C)C(=O)c1ccc(-c2ccc(OCC(C)(C)O)cc2)cc1` (centres unmarked) [Compound 280, N-hydroxy-2-[{[4′-(2-hydroxy-2-methylpropoxy)biphenyl-4-yl]carbonyl}(methyl)amino]-N′-methylpropanediamide] as the compound, how does the IC50 read?
**A.** < 10 nM

**Q.** How did the IC50 turn out when `CNC(=O)C(C(=O)NO)N(C)C(=O)c1ccc(-c2ccc3c(c2)ncn3C)cc1` (centres unmarked) [Compound 281, N-hydroxy-N′-methyl-2-{methyl[4-(1-methyl-1H-benzimidazol-5-yl)benzoyl]amino}propanediamide] was run?
**A.** 10 to 100 nM

**Q.** With `CNC(=O)C(C(=O)NO)N(C)C(=O)c1ccc(-c2ccc3ncn(C)c3c2)cc1` (centres unmarked) [Compound 282, N-hydroxy-N′-methyl-2-{methyl[4-(1-methyl-1H-benzimidazol-6-yl)benzoyl]amino}propanediamide] as the compound, how does the IC50 read?
**A.** 10 to 100 nM
